These results are taken from patent publication US5175168A, “Intermediates for 1,2-dideoxy-2-fluoronojirimycin” (Monsanto Company, priority 1991, dated 1992).

Holding throughout (assay type): biochemical
The target of one test is T1, yeast α-glucosidase (Saccharomyces cerevisiae, UniProt P53341).
T1 construct: purchased Sigma
The test is described as follows: α-Glucosidase Inhibition Assay, pH 7.4. Particulars: read-out: ALPHA GLUCOSIDASE inhibition; for inhibition at 1000 µM: @ 1 mM; for inhibition at 5000 µM: @ 5 mM. As for the experimental part: (§1) The glycosidase inhibition activity is determined by modifying an assay procedure described in Evans et al, Phytochemistry, 22, pp. 768-770 (1983). More particularly, yeast α-glucosidase and almond β-glucosidase activities were measured by the Evans et al method which was modified by assaying activities at pH 7.4 in N-2-hydroxyethylpiperazine-N-2-ethane sulfonic acid (HEPES) buffer, measuring in 96 well microtiter plates, and including 10% DMSO in control and test samples.
(§2) The release of p-nitrophenol from the substrate p-nitrophenylglycoside was measured spectrophotometrically in the presence and absence of test compound. Each assay included a known inhibitor of the enzyme as a standard. IC50 values were determined for compounds which inhibited the enzymes more than 50& at a 1 millimolar concentration.
To 100 ul 50 mM HEPES buffer, pH 7.4, in a microtiter plate, 20 ul test compound in DMSO (DMSO alone in control)and 40 ul (0.013 units) yeast α-glucosidase (Sigma) in HEPES buffer were added and pre-incubated at room temperature 15 minutes. 40 ul 1.25 mM p-nitro-phenyl-α-D-glucopyranoside (Sigma) in HEPES buffer, as substrate was added and the absorbance change at 405 nm was monitored in a Biotek EIA Autoreader. Absorption change was measured at 15 to 25 minutes (reaction was linear for at least 30 minutes). Each sample was tested in triplicate. IC50 values were determined from the linear portion of the log concentration vs percent inhibition curve obtained from a minimum of 3 points. Deoxynojirimycin was used as standard inhibitor.

Test [1] addresses T2, ALPHA MANNOSIDASE (Canavalia ensiformis, UniProt C0HJB3).
T2 sequence (C0HJB3 1-562 limits assumed): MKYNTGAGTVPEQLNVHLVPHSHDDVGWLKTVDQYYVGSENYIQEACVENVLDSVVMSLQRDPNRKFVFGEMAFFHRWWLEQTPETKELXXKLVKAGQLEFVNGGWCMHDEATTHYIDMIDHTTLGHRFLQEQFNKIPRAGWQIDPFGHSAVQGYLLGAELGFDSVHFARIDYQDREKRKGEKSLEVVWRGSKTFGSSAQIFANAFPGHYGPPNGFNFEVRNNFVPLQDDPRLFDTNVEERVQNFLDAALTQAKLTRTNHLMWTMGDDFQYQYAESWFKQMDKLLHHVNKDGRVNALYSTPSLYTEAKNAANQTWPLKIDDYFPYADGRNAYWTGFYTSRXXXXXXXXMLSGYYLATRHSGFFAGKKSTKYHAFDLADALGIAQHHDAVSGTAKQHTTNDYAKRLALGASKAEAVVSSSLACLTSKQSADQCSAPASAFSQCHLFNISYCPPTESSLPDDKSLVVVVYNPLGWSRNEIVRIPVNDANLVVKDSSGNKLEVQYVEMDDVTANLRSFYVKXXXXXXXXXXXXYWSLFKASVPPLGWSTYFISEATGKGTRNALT
T2 sequence (C0HJB3 563-981 limits assumed): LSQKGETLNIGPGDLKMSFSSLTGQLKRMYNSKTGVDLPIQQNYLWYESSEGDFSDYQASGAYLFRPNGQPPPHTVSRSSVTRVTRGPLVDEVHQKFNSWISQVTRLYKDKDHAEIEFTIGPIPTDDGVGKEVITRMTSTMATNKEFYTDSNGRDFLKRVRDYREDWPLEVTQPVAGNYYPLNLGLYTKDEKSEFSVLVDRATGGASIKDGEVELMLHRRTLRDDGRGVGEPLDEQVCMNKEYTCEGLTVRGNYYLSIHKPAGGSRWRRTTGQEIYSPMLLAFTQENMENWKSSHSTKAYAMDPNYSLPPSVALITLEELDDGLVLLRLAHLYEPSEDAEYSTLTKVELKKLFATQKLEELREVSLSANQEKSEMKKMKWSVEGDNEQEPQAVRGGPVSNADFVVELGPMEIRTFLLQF
The test is described as follows: Alpha mannosidase inhibition, pH 4.5. Conditions: for inhibition at 1000 µM: @ 1 mM; for inhibition at 5000 µM: @ 5 mM.

Test [2] has as its system almond β-glucosidase. The test is described as follows: β-Glucosidase Inhibition Assay, pH 7.4. As for the experimental part: as §1, §2
To 100 ul 50 mM HEPES buffer, pH 7.4, in a microtiter plate, 20 ul test compound in DMSO (DMSO alone in control) and 40 ul (0.136 units) β-glucosidase (Sigma) in HEPES buffer were added and pre-incubated at room temperature 15 minutes. 40 ul 1.25 mM p-nitrophenylβ-D-glucopyranoside in HEPES buffer was added as substrate and the absorbance change at 405 nm was monitored utilizing a Biotek EIA Autoreader. Absorption change was measured at 15 to 25 minutes (reaction is linear for at least 30 minutes). Each sample was tested in triplicate. IC50 values were determined from the linear portion of the log concentration vs percent inhibition curve obtained from a minimum of 3 points. Castanospermine was used as standard inhibitor.

In test [3] the test system is almond β-glucosidase. The test is described as follows: β-Glucosidase Inhibition Assay, pH 4.8. As for the experimental part:
as §1, §2
To 100 ul 50 mM sodium citrate buffer, pH 4.8, in a microtiter plate, 20 ul test compound in DMSO (DMSO alone in control) and 20 ul (0.017 units) β-glucosidase (Sigma) in citrate buffer were added and pre-incubated at room temperature 15 minutes. 20 ul 2.50 mM p-nitrophenyl-β-D-glucopyranside in citrate buffer was added as substrate and incubated at room temperature 20 minutes (reaction is linear for at least 30 minutes). 50 ul 0.4 M NaOH was added and the absorption change at 405 nm was determined utilizing a Biotek EIA Autoreader. Each sample was tested in triplioate. IC50 values were determined from the linear portion of the log concentration vs percent inhibition curve obtained from a minimum of 3 points. Castanospermine was used as standard inhibitor.

The target of test [4] is T2, ALPHA MANNOSIDASE
The test is described as follows: Alpha mannosidase inhibition, pH 7.4. Particulars: for inhibition at 1000 µM: @ 1 mM; for inhibition at 5000 µM: @ 5 mM.

T1 sequence (P53341 whole entry): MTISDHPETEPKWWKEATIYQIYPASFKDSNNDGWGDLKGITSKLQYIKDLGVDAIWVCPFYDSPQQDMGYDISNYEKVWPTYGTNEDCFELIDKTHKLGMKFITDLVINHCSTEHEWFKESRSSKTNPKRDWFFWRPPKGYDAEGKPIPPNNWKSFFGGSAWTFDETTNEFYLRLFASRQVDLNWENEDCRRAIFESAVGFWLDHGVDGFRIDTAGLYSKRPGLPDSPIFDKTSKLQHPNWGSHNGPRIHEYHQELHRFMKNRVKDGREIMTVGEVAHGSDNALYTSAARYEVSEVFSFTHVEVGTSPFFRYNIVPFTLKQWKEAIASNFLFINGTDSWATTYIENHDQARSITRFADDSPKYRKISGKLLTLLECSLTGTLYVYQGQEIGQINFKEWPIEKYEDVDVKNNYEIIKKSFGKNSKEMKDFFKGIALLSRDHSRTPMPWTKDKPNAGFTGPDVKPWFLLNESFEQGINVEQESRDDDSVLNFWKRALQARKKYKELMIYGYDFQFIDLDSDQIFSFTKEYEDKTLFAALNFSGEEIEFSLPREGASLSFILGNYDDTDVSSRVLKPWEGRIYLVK

By inhibition is commonly meant the percentage by which the read-out fell short of the control. Turning to `CCCCN1C[C@H](F)[C@@H](O)[C@H](O)[C@H]1CO` [Compound 2, N-butyl-1,2-dideoxy-2-fluoronojirimycin], the inhibition at 1000 µM at yeast α-glucosidase was determined as 8%; against ALPHA MANNOSIDASE [1], 3%; at ALPHA MANNOSIDASE [4], 4%. Moreover, the values for the inhibition at 5000 µM on yeast α-glucosidase, at ALPHA MANNOSIDASE [1] and on ALPHA MANNOSIDASE [4] were 13%, 5% and 12%, respectively. For the same compound, the “BETA GLUCOSIDASE-pH 7.4 inhibition” value with almond β-glucosidase [2] (@ 1 mM) turned out to be 4%; in the test with almond β-glucosidase [2] (@ 5 mM), 11%. Also, the “BETA GLUCOSIDASE-pH 4.8 inhibition” value with almond β-glucosidase [3] (@ 1 mM) is 2%; in the test on almond β-glucosidase [3] (@ 5 mM), -6%.
Regarding `OC[C@H]1NC[C@H](F)[C@@H](O)[C@@H]1O` [Compound 1, 1,2-dideoxy-2-fluoronojirimycin], the inhibition at 1000 µM at yeast α-glucosidase was 24%; against ALPHA MANNOSIDASE [1], 4%; on ALPHA MANNOSIDASE [4], 19%. Besides, the values for the inhibition at 5000 µM at yeast α-glucosidase, at ALPHA MANNOSIDASE [1] and against ALPHA MANNOSIDASE [4] were 64%, 5% and 11%, respectively. Besides, the “BETA GLUCOSIDASE-pH 7.4 inhibition” value with almond β-glucosidase [2] (@ 1 mM) was 11%; with almond β-glucosidase [2] (@ 5 mM), 25%. The “BETA GLUCOSIDASE-pH 4.8 inhibition” value is 6% in the test with almond β-glucosidase [3] (@ 1 mM) and 25% with almond β-glucosidase [3] (@ 5 mM).
